Read-outs that look alike come from different tables or passages of the source. Marks after values point to notes of the source that are not given here.
Experiments:
[1] = PK parameters in plasma and skin of dogs after 28 days of oral dosing; type: in vivo; conditions: for AUC(0-inf): N=5; for MRT / half-life: dog, po
Excerpt: However, for the treatment of the dermal and pulmonary disorders described herein for treatment efficacy, the dermal/pulmonary exposure are more important than systemic exposure, that is, efficacy depends on the skin/pulmonary AUC/Cmax, which are considered to be sites of action for these conditions. The pharmacokinetic parameters in skin and plasma after oral dosing of norketotifen to dogs (N=5) are shown below.

[2] = Phase 1 study, 8 mg/day for 7 days, plasma steady-state; type: in vivo, human; conditions: 8 mg/day for 7 days Phase 1 study
[3] = Fed and fasted oral administration of norketotifen to dogs (food effect PK); type: in vivo; conditions: 4 mg/kg oral; for AUC(0-inf) / Cmax: dog, plasma, po, 4 mg/kg
Experimental: Norketotifen was administered to dogs with and without food. For fed animals, canned food (one can (374 g) of Lamb Ground Dinner with Chicken & Rice per dog was weighed then offered for a period of 30 min prior to dosing at 4 mg/kg. After dosing, dry food (25% protein) was offered. For fasted animals, dogs were fasted overnight and until 4 h post dose and then offered dry food. The results are given in Table 2.

[4] = Distribution of norketotifen to the lungs after oral administration; type: in vivo; conditions: lung / plasma, read-out: Lung concentration relative to plasma concentration
Excerpt: Norketotifen, after oral administration, is rapidly absorbed and is also preferentially distributed to the lungs, where the concentration of RS-norketotifen can reach concentrations that may be 100 times higher than the plasma concentration.

[5] = Accumulation of norketotifen in skin after oral administration; type: in vivo; conditions: read-out: Terminal half-life (t1/2e)
Excerpt: As used herein, the term biophase refers to the site(s) where a drug expresses its therapeutic activity. […] Thus, norketotifen can advantageously be used to treat dermal inflammatory and/or allergic diseases.

[6] = Incidence of vomiting in dogs administered norketotifen as a function of Cmax and AUC; type: in vivo; conditions: FIGS. 1 and 2
[7] = dog, in vivo
Experimental: In the Phase 2 study described herein, doses of 4 mg (maintenance) and 8 mg (loading) were used, with very good effects and with no toxicity. The margin of safety (MOS) was calculated by dividing animal: human doses in mg/kg, or dividing animal systemic exposure (AUC) at no adverse effect level (NOAEL) (a 28-day dog study), with human systemic exposure AUC (from human Phase 1 study), or by dividing animal: to human dose expressed in m2 (body surface area—BSA), or by calculating HED (human equivalent dose).

atopic dermatitis [8] = test: Phase 2a study of oral norketotifen in atopic dermatitis; type: in vivo, human
Experimental: The efficacy and safety of norketotifen orally administered to human subjects over a 28 day period were determined in a Phase 2 study. Norketotifen efficacy was compared to the clinical data in the prescribing information for Eucrisa® by dermal application; and compared to the clinical data in the prescribing information (product monograph) for Dupixent® by subcutaneous administration. In the Phase 2a study, 8 subjects were administered Placebo and 16 subjects were administered norketotifen. Oral norketotifen was administered at 4 mg BID (twice per day) for 4 days, followed by 4 mg QD (once per day). The duration of the study was 4 weeks. The parameters determined were: IGA score, Investigator's Global Assessment scale. The scale is as follows: • 0=clear—No inflammatory signs of atopic dermatitis (no erythema, no induration/papulation, no lichenification, no oozing/crusting). Post-inflammatory hyperpigmentation and/or hypopigmentation may be present. • 1=almost clear—Barely perceptible erythema, barely perceptible induration/papulation, and/or minimal lichenification. No oozing or crusting. • 2=mild—Slight but definite erythema (pink), slight but definite induration/papulation, and/or slight but definite lichenification. No oozing or crusting. • 3=moderate—Clearly perceptible erythema (dull red), clearly perceptible induration/papulation, and/or clearly perceptible lichenification. Oozing and crusting may be present. • 4=severe—Marked erythema (deep or bright red), marked induration/papulation, and/or marked lichenification. Disease is widespread in extent. Oozing or crusting may be present. In the IGA assessment, a responder was identified as a subject with IGA 0 or 1 (clear or almost clear) after treatment. A partial responder was defined as having an IGA score>1, but less than the initial score recorded on Day 1. A non-responder is a subject in which the initial IGA score was identical to the IGA score at the end of treatment (i.e. no change in score numbers). […] In Table 4, the results for norketotifen were compared to the results from the Dupixent® prescribing information.

atopic dermatitis [9] = conditions: 16 weeks, 224 subjects, cited from earlier work
[10] = Fast (fasted overnight until 4 h post dose)
[11] = oral 4 mg BID for 4 days, then 4 mg QD for 24 days, 4 weeks, 16 subjects

Q: For `O=C1Cc2ccccc2C(=C2CCNCC2)c2ccsc21` (racemic) [norketotifen], which AUC(0-inf) ([1]; dog plasma, after 28 days of oral dosing) is on record?
A: 4520 ng·h/mL

Q: And the AUC(0-inf) ([1]; dog skin, after 28 days of oral dosing)?
A: 46100 ng·h/mL

Q: What about the MRT ([1]; plasma, dog plasma, after 28 days of oral dosing, read-out: MRT (mean residence time)) of the same compound?
A: 17.5 h

Q: And the half-life ([1]; plasma, dog plasma, after 28 days of oral dosing, read-out: t ½(e) (converted))?
A: 38.3 h

Q: And the MRT ([1]; skin, dog skin, Phase 2 = 14 day post dosing period, read-out: MRT (phase 2))?
A: 159 h

Q: And the half-life ([1]; skin, dog skin, Phase 2 = 14 day post dosing period, read-out: t ½(e) (phase 2) (converted))?
A: 160 h

Q: What about the MRT ([1]; skin, dog skin, after 28 days of oral dosing, read-out: MRT (mean residence time)) of the same compound?
A: 86.5 h

Q: What about the half-life ([1]; skin, dog skin, after 28 days of oral dosing, read-out: t ½(e) (converted)) of the same compound?
A: 25.4 h

Q: What about the “Time to plasma steady-state” value [2] of the same compound?
A: ≤ 4 days

Q: And the “% difference in AUC0-∞, fed vs fasted (reduction in fed animals)” value [3]?
A: 26%

Q: What about the AUC(0-inf) [3, 10] of the same compound?
A: 522 ng·h/mL

Q: And the Cmax [3, 10]?
A: 93 ng/mL

Q: And the AUC(0-inf) ([3]; Fed)?
A: 390 ng·h/mL

Q: And the Cmax ([3]; Fed)?
A: 58 ng/mL

Q: What about the Kp [4] of the same compound?
A: ~100

Q: What about the half-life [5] of the same compound?
A: 144 to 168 h

Q: What about the “Incidence of vomiting vs systemic Cmax and AUC” value [6] of the same compound?
A: incidence of vomiting increases as both systemic Cmax and AUC increase

Q: And the “Margin of safety (animal: human), Systemic exposure (AUC0-inf.)” value (“Margin of safety (animal: human)” below) ([7]; 2 mg)?
A: 127-fold

Q: What about the “Margin of safety (animal: human)” value ([7]; 4 mg) of the same compound?
A: 72-fold

Q: What about the “Margin of safety (animal: human)” value ([7]; 16 mg) of the same compound?
A: 19-fold

Q: And the “Margin of safety (animal: human)” value ([7]; 32 mg)?
A: 6-fold

Q: What about the “Margin of safety (animal: human)” value ([7]; 64 mg) of the same compound?
A: 3-fold

Q: And the “Safety/tolerability in the safety population” value (atopic dermatitis [8]; 28 days oral treatment, adverse event in only one patient, resolved completely)?
A: well-tolerated, with no reported instances of serious adverse events or treatment-related adverse events

Q: And the “Toxicity at Phase 2 doses” value (atopic dermatitis [8]; doses of 4 mg (maintenance) and 8 mg (loading))?
A: no toxicity

Q: What about the “Nausea or vomiting when dosed on a full stomach” value (atopic dermatitis [8]; human subjects, with food, up to a dose of 16 mg) of the same compound?
A: no nausea or vomiting was noted

Q: And the “% reduction of affected BSA (Baseline to Day 29)” value (atopic dermatitis [8]; oral 4 mg BID for 4 days, then 4 mg QD for 24 days)?
A: −63.3%^

Q: What about the “IGA scores >1, but less than the initial scores on Day 1 (partial responders)” value (atopic dermatitis [8]; [11]) of the same compound?
A: 50%

Q: And the “Non responders at all” value (atopic dermatitis [8]; [11])?
A: 6.1%

Q: And the “IGA scores ≤1, percent responders” value (atopic dermatitis [8]; oral 4 mg BID for 4 days, then 4 mg QD for 24 days, 4 weeks, 16 subjects, p = 0.0095 / 0.0031 vs Placebo (Fisher's exact test))?
A: 43.89% ^b

Q: And the “Pruritus, score 0, percentage improvement for NK group” value (atopic dermatitis [8]; pruritus severity scale 0-3, 4 weeks, p = 0.016 vs Placebo)?
A: 62.5%^c

Q: With “Dupilumab: recombinant human IgG4 monoclonal antibody binding IL-4Rα, inhibits IL-4 and IL-13 signaling; subcutaneous injection” as the compound, how does the “IGA scores ≤1, percent responders” value (atopic dermatitis [9]; 300 mg Q2W subcutaneous) read?
A: 37.9%

Q: What about the “NRS ≥4 score improvement, percentage response for dupilumab group” value (atopic dermatitis [9]; pruritus NRS 0-10, 300 mg Q2W) of the same compound?
A: 40.8%
